Measured values published in patent US20250169715A1, “USE OF BLINK REFLEX FOR HEADACHE RESPONSE MONITORING AND/OR TREATMENT SELECTION” (priority 2022, published 2025).

Test system: patients with headache/migraine
Test: Blink reflex measuring device: blink-associated parameters before and after treatment, by treatment modality
Type: in vivo, human
Source text: In embodiments, the one or more blink-associated parameters are selected from: • (a) latency, optionally in milliseconds, comprising a time differential between stimulation and eyelid movement, e.g., one or more of upper eyelid or lower eyelid; • (b) differential latency, optionally in milliseconds, comprising a time differential between the start of ipsilateral eye movement and the start of contralateral eye movement; • (c) delta 30, comprising a time difference between ipsilateral eye and contralateral eye movement; • (d) eyelid excursion, optionally in pixels, comprising a distance traveled by the eyelid from the tonic lid position to closed position; • (e) initial lid velocity, optionally in pixels/msec, comprising an average eyelid speed following start of eyelid movement, e.g., the first about 5 frames, the first about 7 frames, or the first about 10 frames; • (f) time to close, optionally in log scale, comprising a time for lid to travel from tonic lid position to the closed position; • (g) time to open, optionally in log scale, comprising a time for lid to travel from closed position back to tonic lid position; • (h) time under threshold, optionally in log scale, comprising a time that the eyelid spends below the threshold position; • (i) number of oscillations, comprising cycles of up and down upper eyelid movement after a stimulated blink; • (j) total blink time, optionally in log scale, comprising a time from start of eyelid movement until it returns to its tonic lid position; • (k) number of blinks; • (l) blink rate, optionally per minute; • (m) area under curve, optionally in pixels; • (n) maximum closing velocity, optionally in […], comprising a maximum velocity during eyelid closure; • (o) maximum opening velocity, optionally in […], comprising a maximum velocity during eyelid opening; and • (p) time to first oscillation, optionally in log scale, comprising the elapsed time between the eyelid returning within threshold of a tonic position for a stimulated blink and the onset of the next unstimulated blink.
In this study, a population of male and female migraine patients are assessed for blink reflex response using the blink reflex measuring device. The patients in this study are tested when they visit the doctor during their routine office visits and/or before and after a doctor prescribed therapeutic intervention.
Blink reflex measuring device was used for collecting multiple blink-associated parameters from patients with headache/migraine before and after treatment undergoing treatment.
Blink reflex measuring device was used for collecting multiple blink-associated parameters from patients with headache/migraine before and after undergoing different treatments. The different treatments were intravenous (IV) ketamine infusion therapy, sphenopalatine ganglion (SPG) block+peripheral nerve block (PNB), and IV ketamine+SPG+PNB. The results are shown in TABLE 2, FIGS. 34-6D and FIG. 7.
TABLES 4-6 show the variable changes based on right and left eye by treatment modality: intravenous (IV) ketamine infusion therapy (TABLE 4); sphenopalatine ganglion (SPG) block+peripheral nerve block (PNB) (TABLE 5); and IV ketamine+SPG+PNB (TABLE 6). It is important to note that whereas FIGS. 34-6D and FIG. 7 show the changes based on treatment modality of each variable and show the overall changes predicated on both right and left eye, TABLES 4-6 break down the variables by right and left eye changes.

[1] = left eye, post treatment, Table 4
[2] = post-treatment average, patients with headache/migraine, by treatment modality
[3] = right eye, post treatment, Table 4

CNC1(c2ccccc2Cl)CCCCC1=O (stereo not drawn) [ketamine]
Blink Rate, Left Eye Post Tx (left eye, post treatment): 89.415 per min | Blinks, Left Eye Post Tx (left eye, post treatment): 5.945 qty | Delta 30, Left Eye Post Tx (left eye, post treatment): 9.328 ms | Differential Latency, Left Eye Post Tx (left eye, post treatment): 4.625 ms | Excursions, Left Eye Post Tx (left eye, post treatment): 91.548 pixels | Latency, Left Eye Post Tx (left eye, post treatment): 53.958 ms | Oscillations Rate, Left Eye Post Tx (left eye, post treatment): 2.293 per min | Oscillations, Left Eye Post Tx (left eye, post treatment): 9.914 no. | Time to Close, Left Eye Post Tx (left eye, post treatment): 27.686 ms | Time to First Oscillation, Left Eye Post Tx (left eye, post treatment): 7.301 Ln ms | Time to Open, Left Eye Post Tx (left eye, post treatment): 286.813 ms | Area Under the Curve, Left Eye Post Tx [1]: 10.250 pixels | Time Under 20, Left Eye Post Tx [1]: 5.228 Ln ms | Blink reflex differences pre and post treatment via Blink Reflex Measuring Device (patients having a migraine, p=0.05): Statistical differences | Area Under Curve, POST-TX AVERAGE [2]: 29522.632 pixels | Blink Rate, POST-TX AVERAGE [2]: 83.490 per min | Blinks, POST-TX AVERAGE [2]: 5.345 qty | Delta 30, POST-TX AVERAGE [2]: 7.435 ms | Differential Latency, POST-TX AVERAGE [2]: 6.145 ms | Excursion, POST-TX AVERAGE [2]: 88.575 pixels | Latency, POST-TX AVERAGE [2]: 49.827 ms | Oscillations, POST-TX AVERAGE [2]: 10.273 no. | Time Under 20, POST-TX AVERAGE [2]: 5.237 Ln ms | Time to Close, POST-TX AVERAGE [2]: 29.930 ms | Time to First Oscillation, POST-TX AVERAGE [2]: 7.412 Ln ms | Time to Open, POST-TX AVERAGE [2]: 307.108 ms | Blink Rate, Right Eye Post Tx (right eye, post treatment): 73.691 per min | Blinks, Right Eye Post Tx (right eye, post treatment): 5.170 qty | Delta 30, Right Eye Post Tx (right eye, post treatment): 5.766 ms | Differential Latency, Right Eye Post Tx (right eye, post treatment): 5.438 ms | Excursions, Right Eye Post Tx (right eye, post treatment): 92.605 pixels | Latency, Right Eye Post Tx (right eye, post treatment): 52.583 ms | Oscillations Rate, Right Eye Post Tx (right eye, post treatment): 1.966 per min | Oscillations, Right Eye Post Tx (right eye, post treatment): 8.606 no. | Time to Close, Right Eye Post Tx (right eye, post treatment): 31.119 ms | Time to First Oscillation, Right Eye Post Tx (right eye, post treatment): 7.517 Ln ms | Time to Open, Right Eye Post Tx (right eye, post treatment): 258.318 ms | Area Under the Curve, Right Eye Post Tx [3]: 10.157 pixels | Time Under 20, Right Eye Post Tx [3]: 5.099 Ln ms
